Test results reported in patent US11891387B2, “Monoacylglycerol lipase modulators” (Janssen Pharmaceutica NV, priority 2020, dated 2024).

Molecular target: human MGL from HeLa cells (Homo sapiens (Human), UniProt Q99685)
Experiment: MGL in vitro activity assay: cleavage of [glycerol-1,3-3H]-oleyl glycerol, activated carbon filtration
Type: biochemical
Conditions: 300 nM [Glycerol-1,3-3H]-oleyl glycerol, endogenously expressed MGL from HeLa cells, one hour incubation
Method in brief: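 Endogenous human MGL from HeLa cells or homogenates was incubated with compound and 300 nM [glycerol-1,3-3H]-oleyl glycerol for one hour. Released [3H]-glycerol passing an activated carbon filter was counted as the measure of activity. Screening used 10 μM compound, with IC50 top concentration set empirically.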

Sequence of human MGL from HeLa cells (Q99685 whole entry): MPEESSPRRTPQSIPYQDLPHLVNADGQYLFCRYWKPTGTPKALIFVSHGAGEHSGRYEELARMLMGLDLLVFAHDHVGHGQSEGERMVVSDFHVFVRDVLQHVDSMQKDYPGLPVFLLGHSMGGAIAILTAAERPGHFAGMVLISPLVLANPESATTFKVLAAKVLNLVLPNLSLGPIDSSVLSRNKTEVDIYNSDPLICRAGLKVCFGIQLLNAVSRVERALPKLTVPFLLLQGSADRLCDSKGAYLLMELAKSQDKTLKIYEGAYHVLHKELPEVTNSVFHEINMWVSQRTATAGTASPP

## Cc1ccc(C(=O)N2CCc3c(nn(C)c3-c3cc(C(F)(F)F)nn3C)[C@@H]2C)c(OC(F)(F)F)c1 [Example 110, (S)-(2,7-Dimethyl-3-(1-methyl-3-(trifluoromethyl)-1H-pyrazol-5-yl)-2,4,5,7-tetrahydro-6H-pyrazolo[3,4-c]pyridin-6-yl)(4-methyl-2-(trifluoromethoxy)phenyl)methanone]
  IC50: 650 nM

## C[C@H]1c2nn(C)c(-c3cc(C(F)(F)F)nn3C)c2CCN1C(=O)c1cnc2cc(F)cc(F)c2c1 [Example 18, (S)-(5,7-Difluoroquinolin-3-yl)(2,7-dimethyl-3-(1-methyl-3-(trifluoromethyl)-1H-pyrazol-5-yl)-2,4,5,7-tetrahydro-6H-pyrazolo[3,4-c]pyridin-6-yl)methanone]
  IC50: 360 nM

## COc1cccc(C(=O)N2[C@@H]3CC[C@H]2c2nn(C)c(-c4cc(C(F)(F)F)nn4C)c2C3)c1C [Example 89, (3-Methoxy-2-methylphenyl)((5R,8S)-2-methyl-3-(1-methyl-3-(trifluoromethyl)-1H-pyrazol-5-yl)-2,4,5,6,7,8-hexahydro-5,8-epiminocyclohepta[c]pyrazol-9-yl)methanone]
  IC50: 66 nM

## C[C@H]1c2nn(C)c(-c3cc(C(F)(F)F)n(C)n3)c2CCN1C(=O)c1ccc2ncsc2c1 [Example 120, (S)-Benzo[d]thiazol-6-yl(2,7-dimethyl-3-(1-methyl-5-(trifluoromethyl)-1H-pyrazol-3-yl)-2,4,5,7-tetrahydro-6H-pyrazolo[3,4-c]pyridin-6-yl)methanone]
  IC50: 46 nM

## C[C@H]1c2nn(C)c(-c3cc(C(F)(F)F)nn3C)c2CCN1C(=O)c1ccc(F)c2c1cnn2C [Example 21, (S)-(2,7-Dimethyl-3-(1-methyl-3-(trifluoromethyl)-1H-pyrazol-5-yl)-2,4,5,7-tetrahydro-6H-pyrazolo[3,4-c]pyridin-6-yl)(7-fluoro-1-methyl-1H-indazol-4-yl)methanone]
  IC50: 5.6 nM

## Cc1cc(C(=O)N2CCc3c(nn(C)c3-c3cnn(C)c3C(F)(F)F)[C@@H]2C)cc(-n2nccn2)c1 [Example 53, (S)-(2,7-Dimethyl-3-(1-methyl-5-(trifluoromethyl)-1H-pyrazol-4-yl)-2,4,5,7-tetrahydro-6H-pyrazolo[3,4-c]pyridin-6-yl)(3-methyl-5-(2H-1,2,3-triazol-2-yl)phenyl)methanone]
  IC50: 810 nM

## C[C@H]1c2nn(C)c(-c3ccnn3C3CC3)c2CCN1C(=O)c1ccc2ncccc2c1 [Example 68, (S)-(3-(1-Cyclopropyl-1H-pyrazol-5-yl)-2,7-dimethyl-2,4,5,7-tetrahydro-6H-pyrazolo[3,4-c]pyridin-6-yl)(quinolin-6-yl)methanone]
  IC50: 4200 nM

## Cc1ccc(C(=O)N2CCc3c(nn(C)c3-c3cnn(C)c3C(F)(F)F)[C@@H]2C)c(F)c1 [Example 30, (S)-(2,7-Dimethyl-3-(1-methyl-5-(trifluoromethyl)-1H-pyrazol-4-yl)-2,4,5,7-tetrahydro-6H-pyrazolo[3,4-c]pyridin-6-yl)(2-fluoro-4-methylphenyl)methanone]
  IC50: 3070 nM

## C[C@H]1c2nn(C)c(-c3cc(C(F)(F)F)nn3C)c2CCN1C(=O)c1ccc2ncsc2c1 [Example 56, (S)-Benzo[d]thiazol-6-yl(2,7-dimethyl-3-(1-methyl-3-(trifluoromethyl)-1H-pyrazol-5-yl)-2,4,5,7-tetrahydro-6H-pyrazolo[3,4-c]pyridin-6-yl)methanone]
  IC50: 26 nM

## C[C@H]1c2nn(C)c(-c3cnn(C)c3C(F)(F)F)c2CCN1C(=O)c1ccnc2c1ccn2C [Example 52, (S)-(2,7-Dimethyl-3-(1-methyl-5-(trifluoromethyl)-1H-pyrazol-4-yl)-2,4,5,7-tetrahydro-6H-pyrazolo[3,4-c]pyridin-6-yl)(1-methyl-1H-pyrrolo[2,3-b]pyridin-4-yl)methanone]
  IC50: 420 nM

## C[C@H]1c2nn(C)c(-c3cc(C(F)(F)F)nn3C)c2CCN1C(=O)c1c(F)cnc2c1ccn2C [Example 47, (S)-(2,7-Dimethyl-3-(1-methyl-3-(trifluoromethyl)-1H-pyrazol-5-yl)-2,4,5,7-tetrahydro-6H-pyrazolo[3,4-c]pyridin-6-yl)(5-fluoro-1-methyl-1H-pyrrolo[2,3-b]pyridin-4-yl)methanone]
  IC50: 0.67 nM

## Cc1cc(C(=O)N2[C@@H]3CCC[C@H]2c2nn(C)c(-c4cc(C(F)(F)F)n(C)n4)c2C3)c2cc(F)ccc2n1 [Example 88, (6-Fluoro-2-methylquinolin-4-yl)((5R,9S)-2-methyl-3-(1-methyl-5-(trifluoromethyl)-1H-pyrazol-3-yl)-4,5,6,7,8,9-hexahydro-2H-5,9-epiminocycloocta[c]pyrazol-10-yl)methanone]
  IC50: 6.6 nM

## C[C@H]1c2nn(C)c(-c3cc(C(F)(F)F)nn3C)c2CCN1C(=O)c1nccc2ccccc12 [Example 44, (S)-(2,7-Dimethyl-3-(1-methyl-3-(trifluoromethyl)-1H-pyrazol-5-yl)-2,4,5,7-tetrahydro-6H-pyrazolo[3,4-c]pyridin-6-yl)(isoquinolin-1-yl)methanone]
  IC50: 19 nM

## COc1cc(C)ccc1C(=O)N1CCc2c(nn(C)c2-c2cc(C(F)(F)F)nn2C)[C@@H]1C [Example 41, (S)-(2,7-Dimethyl-3-(1-methyl-3-(trifluoromethyl)-1H-pyrazol-5-yl)-2,4,5,7-tetrahydro-6H-pyrazolo[3,4-c]pyridin-6-yl)(2-methoxy-4-methylphenyl)methanone]
  IC50: 62 nM

## C[C@H]1c2nn(C)c(-c3cc(C(F)(F)F)nn3C)c2CCN1C(=O)c1ccc2c(c1)OCCC2 [Example 55, (S)-Chroman-7-yl(2,7-dimethyl-3-(1-methyl-3-(trifluoromethyl)-1H-pyrazol-5-yl)-2,4,5,7-tetrahydro-6H-pyrazolo[3,4-c]pyridin-6-yl)methanone]
  IC50: 110 nM

## C[C@H]1c2nn(C)c(-c3cn(C)nc3C(F)(F)F)c2CCN1C(=O)c1ccc2c(c1)OCCC2 [Example 61, (S)-Chroman-7-yl(2,7-dimethyl-3-(1-methyl-3-(trifluoromethyl)-1H-pyrazol-4-yl)-2,4,5,7-tetrahydro-6H-pyrazolo[3,4-c]pyridin-6-yl)methanone]
  IC50: 7180 nM
